Each block holds one compound with its values, some of them ahead of it.
What was measured:
Type in all cases: physicochemical
[1] = Flowability and handling of the crystals; conditions: crystals in the form of plates
[2] = Storage stability of the crystalline form; conditions: stored at ambient temperature
[3] = Temperature range of stability of the polymorph (DSC discussion); conditions: form only stable above this temperature
Description: DSC curves were recorded with a DSC 7 system (Perkin Elmer, Norwalk, Conn., USA) using the Pyris 2.0. software. Samples of approximately 2 mg were weighted into A1 pans with perforated cover. Dry nitrogen was used as purge gas. X-axis is the temperature in ° C., Y-axis gives dH/dT (endo up).
Form I is a crystalline form which melts at about 180° C. and is only stable at temperatures above 130° C.

- flowability characteristics [1]: favourable flowability characteristics
Compound: C[C@@H](NCCCc1cccc(C(F)(F)F)c1)c1cccc2ccccc12.Cl

- stable when stored [2]: ≥ 3 months
Compound: C[C@@H](NCCCc1cccc(C(F)(F)F)c1)c1cccc2ccccc12.Cl [Form III of Cinacalcet hydrochloride]

- temperature at which the form is stable [3]: above 130 °C
Compound: C[C@@H](NCCCc1cccc(C(F)(F)F)c1)c1cccc2ccccc12.Cl [Form I]
